# Reference: patent US9751081B2, “Self-regenerating antioxidant catalysts and methods of using the same” (Clemson University, priority 2014, dated 2017)
# What was measured:
# [1] = published values; cited from earlier work
# [2] = Reduction of ABTS radical monoanion in EtOH (absorbance at 750 nm); assay type: biochemical
# Protocol: To probe the potential antioxidant activity of Ru1, 2,2′-azino-bis(3-ethylbenzothiazoline-6-sulfonate) radical monoanion (ABTS^•−), which is stable in aerobic, protic media and undergoes reversible one-electron reduction to ABTS^2−, was selected as the substrate for studies of catalytic radical reduction (Scheme 7).
# Accompanying this degradation of 50 μM ABTS^•− was an increase in absorbance at 340 nm corresponding to the formation of 50 μM ABTS^2−, indicating 1:1 conversion of ABTS^•− to ABTS^2− by Ru1.
# To assess its catalytic potential and corresponding regeneration, the reactivity of Ru1 with multiple sequential aliquots of excess ABTS^•− was examined. After the reduction of 50 μM ABTS^•− by 5 μM Ru1 (DMSO stock) was complete (FIG. 12B, black line), 5 additional 50 μM aliquots of ABTS^•− were introduced, whereupon complete ABTS^•− reduction occurred each time (FIG. 12B, grey line, 60 turnovers). Although the time required for complete degradation increased with each successive ABTS^•− aliquot, 5 μM Ru1 nonetheless remained catalytically competent for the complete reduction of […] ABTS^•−.
# [3] = In situ oxidation of ABTS^2− to ABTS^•− via HRP and H2O2 in the presence of antioxidant; assay type: biochemical
# [4] = Stability (air, moisture, solution); assay type: physicochemical; settings: isolated powder
smiles,measurement,setting,value
"OCCO [EG, Ethylene glycol]",pKa,[1],14.22
"CO [MeOH, methanol]",pKa,[1],15.5
Cc1c(C)c2c(c(C)c1O)CCC(C)(C(=O)O)O2 (stereo not drawn) [Trolox],ABTS^•− reduced,"[2]; 5 μM antioxidant, 50 μM ABTS^•− in EtOH",10 µM
same,decay in radical absorbance at 750 nm,"[2]; 5 μM antioxidant, 50 μM ABTS^•− in EtOH, 25° C.",20%
same,equiv. of ABTS^•− reduced vs antioxidant,"[2]; EtOH, non-catalytic capacity",2 equiv.
same,net oxidation of ABTS^2−,"[3]; 5 μM Trolox, 10 μM H2O2",75%
same,time with no change in absorbance at 734 nm (ABTS^•− formation halted),"[3]; 5 μM Trolox, 10 μM H2O2",4.2 ± 0.4 min
same,initial rate of ABTS^•− formation (v0),"[3]; 5 μM antioxidant (DMSO stock), 10 nM HRP, 50 μM ABTS^2−, first 10 μM H2O2, PBS",3.44±0.11×10^−8 M s^−1
same,maximum ABTS^•− concentration,[3]; first 10 μM H2O2,15.06 ± 0.04 µM
same,time to maximum ABTS^•− concentration,[3]; first 10 μM H2O2,22.0 ± 0.5 min
"Br.Cc1cc(C)cc(-n2c[n+](CC(=O)[O-])c3ccccc32)c1 [[1H2][Br], 2-(3-{3,5-dimethylphenyl}-benzimidazol-1-ium-1-yl)acetate hydrobromide]",stability to air and moisture,[4],air- and moisture-stable
"CC(C)O [i-PrOH, isopropanol]",pKa,[1],16.5
